Assay results: patent US8673909B2, “Indole compounds and methods for treating visceral pain” (NeurAxon, Inc., priority 2007, dated 2014)

How the values were obtained:
[1] = system: rats with experimental pancreatitis; experiment: Pancreatitis visceral pain model (DBTC), referred abdominal hypersensitivity, von Frey; type: in vivo, rat
Experimental: Adult male Sprague Dawley rats (Harlan, Indianapolis, Ind.), weighing 150-200 g were maintained in a climate-controlled room with ad lib food and water on a 12-h light/dark cycle (lights on at 07:00 hours). All procedures followed the policies of the International Association for the Study of Pain and the NIH guidelines for the handling and use of laboratory animals. Studies were approved by the University of Arizona IACUC.
Pancreatitis was produced by a tail vein injection of dibutyltin dichloride (DBTC, Aldrich, Milwaukee, Wis., 0.25 cc) dissolved in 100% ethanol at a dose of 8 mg/kg under isofluorane anesthesia (2-3 liters/min, 4.0%/vol until anesthetized, then 2.5%/vol throughout the procedure) (Vera-Portocarrero et al., 2006). Control animals were injected with the vehicle solution only (100% ethanol, 0.25 cc).
Referred abdominal hypersensitivity in the pancreatitis model was quantified by measuring the number of withdrawals events evoked by application of a calibrated von Frey filament (determined by either abdominal withdrawal, licking of the abdominal area, or whole body withdrawal). Rats were placed inside Plexiglas boxes on an elevated fine fiberglass screen mesh and acclimated for 30 minutes before testing. A 4 g von Frey filament was applied from underneath through the mesh floor, to the abdominal area at different points on the surface. […] The mean occurrence of withdrawal events in each trial is expressed as the number of responses to 10 applications as previously described (Vera-Portocarrero et al., 2003).
Significant differences between each experimental group for the behavioral test across time were detected by a two-factor ANOVA follow by the Fishers Least Significance Difference post-hoc test. One-factor ANOVA was used to detect significant differences in behavioral outcomes within each experimental group over time. A linear regression analysis was used to detect the dose-dependency of the effects. Significance was established at the p<0.05 level.

[2] = target: Recombinant human inducible NOS (iNOS) (Homo sapiens, UniProt P35228); experiment: Human iNOS assay, radiometric; type: biochemical; details: Table 10, human iNOS; read-out: iNOSh
Experimental: Recombinant human inducible NOS (iNOS) was produced in Baculovirus-infected Sf9 cells (ALEXIS). […] 15 μL of test substances are added to the mixture with the specific enzyme and pre-incubated at RT for 15 min. • 2. […] The incubation is carried out at 37° C. for 45 min. • 4. […] An aliquot 70 μL of the supernatant is added to 100 μL scintillation fluid. • 8.
The total volume of the reaction mixture is 150 μL in every well. All assays are performed at least in duplicate. Standard deviations are 10% or less.

[3] = target: 5-HT1D (Bos taurus, UniProt F1MMU1); experiment: 5-HT1D binding assay (agonist radioligand), bovine caudate membranes; details: Table 11, bovine 1D receptor binding; read-out: 5HT1D
Experimental: 5-HT1D binding assays (agonist radioligand) were performed using bovine caudate membranes according to the methods of Heuring and Peroutka (J. Neurosci., 7: 894-903 (1987)). 5-HT1B (rat cerebral cortex) binding assays (agonist radioligand) were performed according to the method of Hoyer et. al. (Eur. J. Pharmacol., 118: 1-12 (1995)). For the purpose of result analysis, the specific ligand binding to the receptors is defined as the difference between the total binding and the nonspecific binding as determined in the presence of an excess of unlabelled ligand. The results are expressed as a percent of control specific binding obtained in the presence of the test compounds.

Chain of 5-HT1D (F1MMU1 1-377): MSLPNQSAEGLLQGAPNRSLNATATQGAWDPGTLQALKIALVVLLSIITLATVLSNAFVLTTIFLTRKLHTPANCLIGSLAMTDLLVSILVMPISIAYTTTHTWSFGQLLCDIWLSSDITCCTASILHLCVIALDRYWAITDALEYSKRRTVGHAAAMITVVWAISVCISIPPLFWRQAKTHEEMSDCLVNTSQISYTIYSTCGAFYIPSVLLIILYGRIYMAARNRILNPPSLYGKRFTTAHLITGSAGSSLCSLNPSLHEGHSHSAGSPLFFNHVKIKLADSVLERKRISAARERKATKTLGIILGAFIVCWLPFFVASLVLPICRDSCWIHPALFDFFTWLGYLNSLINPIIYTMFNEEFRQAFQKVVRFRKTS

| IC50 [2] [µM] | IC50 [3] [nM] | SMILES | reversal of tactile allodynia in pancreatitis visceral pain model [1] |
| --- | --- | --- | --- |
| 25 | 170 | CN1CCC(c2c[nH]c3ccc(NC(=N)c4cccs4)cc23)C1 (single isomer, unassigned) [Compound 6a, N-(3-(1-Methylpyrrolidin-3-yl)-1H-indol-5-yl)thiophene-2-carboximidamide] | does not reverse tactile allodynia |
| 20 | 79 | CN1CCC(c2c[nH]c3ccc(NC(=N)c4cccs4)cc23)C1 (single isomer, unassigned) [Compound 6b, N-(3-(1-Methylpyrrolidin-3-yl)-1H-indol-5-yl)thiophene-2-carboximidamide] | reverse the tactile allodynia |
